From patent publication US20250248979A1, “NOVEL GPX4 INHIBITORS AND USES THEREOF” (THE TRUSTEES OF COLUMBIA UNIVERSITY IN THE CITY OF NEW YORK, priority 2022, published 2025)
Read-outs that look alike come from different tables or passages of the source.

Experiments:
[1] = target: T1, GPX4 (Homo sapiens, UniProt P36969); assay: GPX4 activity assay in cell lysates (NADPH-coupled); format: biochemical; set-up: endogenous in cells; host or cells: A-673 cell lysate; settings: 2.5 μM
T1 sequence (P36969 1-170 isoform P36969-2): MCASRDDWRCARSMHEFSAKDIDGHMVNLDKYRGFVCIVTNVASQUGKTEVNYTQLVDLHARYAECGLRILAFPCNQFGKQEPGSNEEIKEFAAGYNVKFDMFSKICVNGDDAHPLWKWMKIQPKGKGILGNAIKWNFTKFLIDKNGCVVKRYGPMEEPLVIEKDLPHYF
In short: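 Native GPX4 in lysates of A-673 cells grown with 20 nM sodium selenite; lysate preincubated with compound 45 min at 37 °C in pH 8.0 buffer with 3 mM GSH, 0.5 mM NADPH and glutathione reductase. Reaction started with phosphatidylcholine hydroperoxide; NADPH consumption followed at 340 nm over 25 min; triplicates.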

[2] = system: HT-1080 cells; assay: Cellular dose response assay, HT-1080 with and without Fer-1; format: cell-based, human; settings: for Selectivity: ferroptosis selectivity, IC50 with Fer-1 / IC50
Excerpt: HT-1080 (human [Homo sapiens] […] fibrosarcoma), A-673 (human [Homo sapiens] […] Ewing's sarcoma), and SK-HEP-1 (human [Homo sapiens] […] hepatic adenocarcinoma), cells were obtained from ATCC. Huh7 (human [Homo sapiens] […] hepatocellular carcinoma), HLF (human [Homo sapiens] […] hepatocellular carcinoma), HepG2 (human [Homo sapiens] […] hepatocellular carcinoma), cells were obtained from the Cancer Cell Bank at Columbia University Irving Medical Center. HT-1080, A-673, Huh-7, and HLF cells were grown in Dulbecco's Modified Eagle Medium (DMEM) supplemented with 10% heat inactivated fetal bovine serum (HI-FBS), 1% non-essential amino acids, and 1% penicillin streptomycin. HepG2 and SK-HEP-1 cells were grown in Eagle's Minimum Essential Medium (EMEM) supplemented with 10% HI-FBS, and 1% penicillin-streptomycin. All cells were cultured at 37° C. and 5% CO2.
HT-1080, HepG2, Huh7, HLF, and SK-HEP-1 cells were seeded into opaque white 384-well plates at 1500 cells per well then incubated at 37° C. with 5% CO2 overnight. The next day, compounds of interest were dissolved in DMSO and 12-point 2-fold dilution series were prepared with and without Fer-1. Cells were treated in triplicate (final DMSO concentration of 0.4% in all wells, including DMSO-only control wells) and incubated for a further 48 hours at 37° C. and 5% CO2. Cell viability was evaluated using CellTiter-Glo (Promega G7573) and luminescence was recorded on a Victor 5 plate reader. Data were analyzed in GraphPad Prism 9 and error bars represent standard deviation values for three technical replicates in a representative experiment.

[3] = with Fer-1, Table 10, read-out: IC50 (μM) HT1080 + Fer-1
[4] = without Fer-1, Table 10, read-out: IC50 (μM) HT1080

Cn1nc(-n2cc(CCOC(=O)CCl)nn2)c2ccc(-c3ccc(OC(F)(F)F)c(Cl)c3)cc21 [QW-764]
GPX4% inhibition at 2.5 μM [1]: 25.4 ± 12.0%

CCOc1ccc(-c2ccc3c(C(=O)NC(C)(C)C(C)(C)OC(=O)CCl)nn(C)c3c2)cc1Cl [QW-765]
GPX4% inhibition at 2.5 μM [1]: 12.0 ± 10.7%

COc1ncc(-c2ccc3c(C(=O)NC(C)(C)COC(=O)CCl)nn(C)c3c2)cc1F [QW-768]
GPX4% inhibition at 2.5 μM [1]: 32.6 ± 7.9%

Cn1nc(C(=O)NCC(C)(C)OC(=O)CCl)c2ccc(-c3ccc(N4CCOCC4)c(Cl)c3)cc21 [QW-775]
GPX4% inhibition at 2.5 μM [1]: 36.2 ± 4.1%

COc1c(Cl)cc(-c2ccc3c(C(=O)NCC(C)(C)OC(=O)CCl)nn(C)c3c2)cc1Cl [QW-778]
GPX4% inhibition at 2.5 μM [1]: 30.4 ± 10.0%

Cn1nc(C(=O)NCC(C)(C)OC(=O)CCl)c2ccc(-c3ccc(OC(F)(F)F)c(Cl)c3)cc21 [QW-779]
GPX4% inhibition at 2.5 μM [1]: 39.1 ± 17.7%

CCOc1ccc(-c2ccc3c(C(=O)NCC(C)(C)OC(=O)CCl)nn(C)c3c2)cc1Cl [QW-782]
GPX4% inhibition at 2.5 μM [1]: −1.0 ± 32.8%

COc1ccc(-c2ccc3c(C(=O)NCC(C)(C)OC(=O)CCl)nn(C)c3c2)cc1Br [QW-783]
GPX4% inhibition at 2.5 μM [1]: −172.4 ± 10.3%

Cn1nc(-n2cc(C(C)(C)COC(=O)CCl)nn2)c2ccc(-c3ccc(C(F)(F)F)c(Cl)c3)cc21 [QW-787]
GPX4% inhibition at 2.5 μM [1]: 35.1 ± 29.1%

Cn1nc(-n2cc(C(C)(C)CNC(=O)CCl)nn2)c2ccc(-c3ccc(N4CCOCC4)c(Cl)c3)cc21 [QW-793]
GPX4% inhibition at 2.5 μM [1]: −53.4 ± 17.0%

Cn1nc(C(=O)NC(C)(C)COC(=O)CCl)c2ccc(-c3ccc(C(F)(F)F)c(Cl)c3)cc21 [QW-794]
GPX4% inhibition at 2.5 μM [1]: 78.5 ± 10.5%

COc1c(F)cc(-c2ccc3c(C(=O)NC(C)(C)COC(=O)CCl)nn(C)c3c2)cc1Cl [QW-802]
GPX4% inhibition at 2.5 μM [1]: 80.1 ± 4.7%

CC(C)Oc1c(Cl)cc(-c2ccc3c(C(=O)NC(C)(C)C(C)(C)OC(=O)CCl)nn(C)c3c2)cc1Cl [QW-808]
GPX4% inhibition at 2.5 μM [1]: 36.3 ± 16.1%

COc1c(Cl)cc(-c2ccc3c(-n4cc(C(C)(C)COC(=O)CCl)nn4)nn(C)c3c2)cc1C(F)(F)F [QW-817]
GPX4% inhibition at 2.5 μM [1]: 75.3 ± 14.5%

CC(C)Oc1c(Cl)cc(-c2ccc3c(C(=O)NC(C)(C)COC(=O)CCl)nn(C)c3c2)cc1Cl [QW-820]
GPX4% inhibition at 2.5 μM [1]: 71.4 ± 6.9%

COc1ccc(-c2ccc3c(C(=O)NC(C)(C)COC(=O)CCl)nn(C)c3c2)c(Cl)c1Cl [QW-826]
GPX4% inhibition at 2.5 μM [1]: 66.2 ± 5.4%

COc1ccc(-c2ccc3c(-n4cc(C(C)(C)COC(=O)CCl)nn4)nn(C)c3c2)c(Cl)c1Cl [QW-829]
GPX4% inhibition at 2.5 μM [1]: 68.7 ± 3.6%

COc1cc(F)c(-c2ccc3c(C(=O)NC(C)(C)COC(=O)CCl)nn(C)c3c2)cc1Cl [QW-830]
GPX4% inhibition at 2.5 μM [1]: 65.5 ± 5.9%

COc1c(Cl)cc(-c2ccc3c(C(=O)NC(C)(C)COC(=O)CCl)nn(Cc4ccc(Cl)cc4)c3c2)cc1C(F)(F)F [QW-836]
GPX4 inhibition [1]: 50%
GPX4% inhibition at 2.5 μM ([1]; 4th generation): 45.7 ± 17.5%

CCOc1ccc(-c2ccc3c(C(=O)NC(C)(C)COC(=O)CCl)nn(Cc4ccc(Cl)cc4)c3c2)cc1Cl [QW-840]
GPX4% inhibition at 2.5 μM ([1]; 4th generation): 80.1 ± 11.8%

COc1c(Cl)cc(-c2ccc3c(C(=O)NC(C)(C)COC(=O)CCl)nn(Cc4ccc(Cl)cc4)c3c2)cc1Cl [QW-843]
GPX4% inhibition at 2.5 μM ([1]; 4th generation): 76.8 ± 11.4%

CCCOc1ccc(-c2ccc3c(C(=O)NC(C)(C)COC(=O)CCl)nn(Cc4ccc(Cl)cc4)c3c2)cc1Cl [QW-846]
GPX4% inhibition at 2.5 μM ([1]; 4th generation): 91.5 ± 3.9%

COc1ccc(-c2ccc3c(C(=O)NC(C)(C)C(C)(C)OC(=O)CCl)nn(Cc4cc(Cl)cc(Cl)c4)c3c2)cc1Cl [QW-886]
Selectivity [2]: 4.5
IC50 [2, 3]: 55.3 µM
IC50 [2, 4]: 12.4 µM

CC(C)(NC(=O)c1nn(Cc2cc(Cl)cc(Cl)c2)c2cc(-c3ccc(N4CCOCC4)c(Cl)c3)ccc12)C(C)(C)OC(=O)CCl [QW-887]
Selectivity [2]: >174
IC50 [2, 3]: > 40 µM
IC50 ([2]; without Fer-1, Table 10, read-out: IC50 HT1080): 0.233 µM

COc1ccc(-c2ccc3c(C(=O)NC(C)(C)COC(=O)CCl)nn(Cc4cccc(C(C)=O)c4)c3c2)cc1Cl [QW-892]
Selectivity [2]: 1.6
IC50 [2, 3]: 37.7 µM
IC50 [2, 4]: 23.7 µM

COc1ccc(-c2ccc3c(C(=O)NC(C)(C)COC(=O)CCl)nn(Cc4ccc(Cl)nc4)c3c2)cc1Cl [QW-897]
Selectivity [2]: 7.5
IC50 [2, 3]: 9 µM
IC50 [2, 4]: 1.2 µM

CC(C)(COC(=O)CCl)NC(=O)c1nn(Cc2ccc(Cl)nc2)c2cc(-c3ccc(N4CCOCC4)c(Cl)c3)ccc12 [QW-898]
Selectivity [2]: 6.8
IC50 [2, 3]: 8.1 µM
IC50 [2, 4]: 1.2 µM

CC(C)(COC(=O)CCl)NC(=O)c1c2ccc(-c3ccc(N4CCOCC4)c(Cl)c3)cc2nn1Cc1ccc(Cl)nc1 [QW-904]
ferroptosis selectivity ([2]; HT-1080): 3.8
Selectivity [2]: 3.8
IC50 [2, 3]: 2.8 µM
IC50 [2, 4]: 0.74 µM

CC(=O)c1cccc(Cn2nc3cc(-c4ccc(N5CCOCC5)c(Cl)c4)ccc3c2C(=O)NC(C)(C)COC(=O)CCl)c1 [QW-911]
Selectivity [2]: 3.8
IC50 [2, 3]: 5 µM
IC50 [2, 4]: 1.3 µM

CC(C)(COC(=O)CCl)NC(=O)c1c2ccc(Br)cc2nn1Cc1ccc(-c2ccc(N3CCOCC3)c(Cl)c2)cc1 [QW-912]
Selectivity [2]: 3.4
IC50 [2, 3]: 5.1 µM
IC50 [2, 4]: 1.5 µM

COc1ccc(-c2ccc3c(C(=O)NC(C)(C)CNC(=O)CCl)nn(Cc4cc(Cl)cc(Cl)c4)c3c2)cc1Cl [QW-927]
Selectivity [2]: 5.1
IC50 [2, 3]: 8.2 µM
IC50 [2, 4]: 1.6 µM

CC(C)(CNC(=O)CCl)NC(=O)c1nn(Cc2cc(Cl)cc(Cl)c2)c2cc(-c3ccc(N4CCOCC4)c(Cl)c3)ccc12 [QW-929]
Selectivity [2]: 2.9
IC50 [2, 3]: 4.6 µM
IC50 [2, 4]: 1.6 µM

COc1ccc(-c2ccc3c(C(=O)NC(C)(C)COC(=O)CCl)nn(Cc4cc(C(F)(F)F)cc(C(F)(F)F)c4)c3c2)cc1Cl [QW-930]
Selectivity [2]: 0.6
IC50 [2, 3]: 13 µM
IC50 [2, 4]: 21.8 µM

CC(C)(COC(=O)CCl)NC(=O)c1nn(Cc2cc(C(F)(F)F)cc(C(F)(F)F)c2)c2cc(-c3ccc(N4CCOCC4)c(Cl)c3)ccc12 [QW-931]
Selectivity [2]: 6.6
IC50 [2, 3]: 34.3 µM
IC50 [2, 4]: 5.2 µM

CC(C)(COC(=O)CCl)NC(=O)c1c2ccc(-c3ccc(N4CCOCC4)c(Cl)c3)cc2nn1Cc1cc(Cl)cc(Cl)c1 [QW-937]
fold reduced activity relative to QW-852 ([2]; HT1080): 25 fold
Selectivity [2]: 2.7
IC50 ([2]; read-out: IC50 HT1080): 1 µM
IC50 [2, 3]: 2.7 µM

CC(C)(COC(=O)CCl)NC(=O)c1c2ccc(-c3ccc(N4CCOCC4)c(Cl)c3)cc2nn1Cc1cc(C(F)(F)F)cc(C(F)(F)F)c1 [QW-945]
Selectivity [2]: 4.0
IC50 [2, 3]: 10.7 µM
IC50 [2, 4]: 2.7 µM

COc1ccc(-c2ccc3c(C(=O)NC(C)(C)COC(=O)CCl)nn(Cc4cc(Cl)ccc4Cl)c3c2)cc1Cl [QW-946]
Selectivity [2]: 133.4
IC50 [2, 3]: 454 µM
IC50 [2, 4]: 3.4 µM

CC(C)(COC(=O)CCl)NC(=O)c1nn(Cc2cc(Cl)cc(Cl)c2)c2cc(Br)ccc12 [QW-954]
Selectivity [2]: 2.0
IC50 [2, 3]: 11.8 µM
IC50 [2, 4]: 5.9 µM

COc1ccc(-c2ccc3c(C(=O)NC(C)(C)COC(=O)CCl)nn(Cc4cccc(Cl)c4Cl)c3c2)cc1Cl [QW-958]
Selectivity [2]: 13.7
IC50 [2, 3]: 31.6 µM
IC50 [2, 4]: 2.3 µM

CC(C)(COC(=O)CCl)NC(=O)c1nn(Cc2cccc(Cl)c2Cl)c2cc(-c3ccc(N4CCOCC4)c(Cl)c3)ccc12 [QW-959]
Selectivity [2]: 508.5
IC50 [2, 3]: 610 µM
IC50 [2, 4]: 1.2 µM

CC(C)(COC(=O)CCl)NC(=O)c1nn(Cc2ccc(Cl)c(Cl)c2)c2cc(-c3ccc(N4CCOCC4)c(Cl)c3)ccc12 [QW-968]
IC50 [2, 3]: > 40 µM
IC50 [2, 4]: > 40 µM

COc1ccc(-c2ccc3c(C(=O)NC(C)(C)COC(=O)CCl)n(Cc4ccc(Cl)c(Cl)c4)nc3c2)cc1Cl [QW-972]
Selectivity [2]: 1.5
IC50 [2, 3]: 5.5 µM
IC50 [2, 4]: 3.6 µM

CC(C)(COC(=O)CCl)NC(=O)c1c2ccc(-c3ccc(N4CCOCC4)c(Cl)c3)cc2nn1Cc1ccc(Cl)c(Cl)c1 [QW-973]
Selectivity [2]: 1.4
IC50 [2, 3]: 5.8 µM
IC50 [2, 4]: 4.2 µM

COc1ccc(-c2ccc3c(c2)c(C(=O)NC(C)(C)COC(=O)CCl)nn3Cc2cc(Cl)cc(Cl)c2)cc1Cl [QW-979]
Selectivity [2]: 1.8
IC50 [2, 3]: 12.5 µM
IC50 [2, 4]: 6.9 µM

CC(C)(COC(=O)CCl)NC(=O)c1nn(Cc2cc(Cl)cc(Cl)c2)c2ccc(-c3ccc(N4CCOCC4)c(Cl)c3)cc12 [QW-980]
Selectivity [2]: 1.5
IC50 [2, 3]: 8.4 µM
IC50 [2, 4]: 5.5 µM
